Reference: patent US20260193238A1, “PHARMACEUTICAL COMPOUNDS AS PARP7 AND/OR PARP1 INHIBITORS” (Duke Street Bio Limited, priority 2022, published 2026)

Target: PARP1 (Homo sapiens, UniProt P09874)
Assay: PARP1 biochemical DELFIA assay (auto-PARylation)
Procedure: Prior to assay, wells were washed 3×5 min in coating wash buffer.
% data was fitted to a non-linear regression equation (log inhibitor vs response-variable slope 4-parameters) to obtain IC50 values.

Chain of PARP1 (P09874 whole entry): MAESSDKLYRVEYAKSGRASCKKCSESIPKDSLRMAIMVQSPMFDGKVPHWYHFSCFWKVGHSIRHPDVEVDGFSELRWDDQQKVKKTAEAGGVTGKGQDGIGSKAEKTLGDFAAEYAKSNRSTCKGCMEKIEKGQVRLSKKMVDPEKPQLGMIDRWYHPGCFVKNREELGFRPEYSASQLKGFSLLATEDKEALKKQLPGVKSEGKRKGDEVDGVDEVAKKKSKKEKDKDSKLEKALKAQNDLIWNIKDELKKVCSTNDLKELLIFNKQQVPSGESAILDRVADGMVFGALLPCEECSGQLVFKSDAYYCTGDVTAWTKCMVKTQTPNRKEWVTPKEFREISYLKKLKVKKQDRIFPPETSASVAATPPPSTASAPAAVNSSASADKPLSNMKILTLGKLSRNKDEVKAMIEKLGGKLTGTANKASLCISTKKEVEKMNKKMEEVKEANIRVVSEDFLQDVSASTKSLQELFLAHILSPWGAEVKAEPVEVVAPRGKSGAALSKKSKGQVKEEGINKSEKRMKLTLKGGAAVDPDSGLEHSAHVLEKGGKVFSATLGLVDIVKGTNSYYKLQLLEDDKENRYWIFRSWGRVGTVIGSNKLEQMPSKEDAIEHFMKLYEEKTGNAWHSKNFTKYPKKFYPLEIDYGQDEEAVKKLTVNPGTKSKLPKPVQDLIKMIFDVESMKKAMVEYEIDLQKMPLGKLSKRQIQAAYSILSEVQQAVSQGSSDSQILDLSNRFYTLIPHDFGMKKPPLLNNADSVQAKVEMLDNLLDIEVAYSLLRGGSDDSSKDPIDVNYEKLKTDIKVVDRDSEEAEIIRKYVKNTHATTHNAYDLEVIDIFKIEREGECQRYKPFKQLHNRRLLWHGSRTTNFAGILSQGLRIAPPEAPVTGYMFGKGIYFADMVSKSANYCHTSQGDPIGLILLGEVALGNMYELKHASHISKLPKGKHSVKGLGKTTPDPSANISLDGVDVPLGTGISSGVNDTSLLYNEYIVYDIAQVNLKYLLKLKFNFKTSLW

O=C(CN1CCCC1c1cc(C(F)(F)F)c(=O)[nH]n1)N1CCN(c2cc(Cl)c(F)cn2)CC1 (single isomer, unassigned) [Compound 80b]
IC50 (Table 1A): 10 to 100 nM

N#Cc1cc(C2CCCN2CC(=O)N2CCN(c3nc4cc(F)ccc4o3)CC2)n[nH]c1=O (single isomer, unassigned) [Compound 149a]
IC50 (Table 1A): 10 to 100 nM

O=C(CN1CCCC1c1cc(C(F)(F)F)c(=O)[nH]n1)N1CCN(c2ncc(OC(F)F)cn2)CC1 (single isomer, unassigned) [Compound 118b]
IC50 (Table 1A): 1000 to 10000 nM

CNC(=O)c1cnc(N2CCN(C(=O)CN3CCCC3c3cc(C(F)(F)F)c(=O)[nH]n3)CC2)cn1 (single isomer, unassigned) [Compound 54a]
IC50 (Table 1A): 100 to 1000 nM

N#Cc1cnc(N2CCN(C(=O)CN3CCCC3c3c[nH]c(=O)c(C(F)(F)F)c3)CC2)nc1 (single isomer, unassigned) [Compound 76b]
IC50 (Table 1A): 100 to 1000 nM

CCc1cc(C2CCCN2CC(=O)N2CCN(c3ncc(C(F)(F)F)cn3)CC2)c[nH]c1=O (single isomer, unassigned) [Compound 57b]
IC50 (Table 1A): 1000 to 10000 nM

O=C(CCN1CCCC(c2cc(C(F)(F)F)c(=O)[nH]n2)C1)N1CCN(c2ncc(F)cn2)CC1 (racemic) [Compound 17rac]
IC50 (Table 1): 100 to 1000 nM

O=C(CN1CCCC1c1cc(C(F)(F)F)c(=O)[nH]n1)N1CCN(c2ccc(C(F)F)cn2)CC1 (single isomer, unassigned) [Compound 126a]
IC50 (Table 1A): 10 to 100 nM

COC1CC(c2cc(C(F)(F)F)c(=O)[nH]n2)N(CC(=O)N2CCN(c3ncc(C(F)(F)F)cn3)CC2)C1 (single isomer, unassigned) [Compound 138cis1, 6-(4-methoxy-1-(2-oxo-2-(4-(5-(trifluoromethyl)pyrimidin-2-yl)piperazin-1-yl)ethyl)pyrrolidin-2-yl)-4-(trifluoromethyl)pyridazin-3(2H)-one]
IC50 (Table 1A): 10 to 100 nM

O=C(CN1CCC(c2cc(C(F)(F)F)c(=O)[nH]n2)C1)N1CCN(c2ncc(C(F)(F)F)cn2)CC1 (racemic) [Compound 19rac]
IC50 (Table 1): 100 to 1000 nM

O=C(CN1CCCC1c1cc(C(F)(F)F)c(=O)[nH]n1)N1CCN(c2nc3ccccn3n2)CC1 (single isomer, unassigned) [Compound 117a]
IC50 (Table 1A): ≤ 10 nM

O=C(CN1CCC(c2n[nH]c(=O)c3ccccc23)CC1)N1CCN(c2ncc(C(F)(F)F)cn2)CC1 [Compound 51]
IC50 (Table 1A): 10 to 100 nM

CN(c1ncc(C(F)(F)F)cn1)C1CN(C(=O)CN2CCCC2c2cc(C(F)(F)F)c(=O)[nH]n2)C1 (single isomer, unassigned) [Compound 127b]
IC50 (Table 1A): 1000 to 10000 nM

CNC(=O)c1ccc(N2CCN(C(=O)CN3CCCC3c3cc(C(F)(F)F)c(=O)[nH]n3)CC2)nc1 (single isomer, unassigned) [Compound 55a]
IC50 (Table 1A): 1000 to 10000 nM

N#Cc1ccc(N2CCN(C(=O)CCN3CCCC(c4cc(C(F)(F)F)c(=O)[nH]n4)C3)CC2)nc1 (single isomer, unassigned) [Compound 11b]
IC50 (Table 1): 100 to 1000 nM

O=C(CCN1CCCC1c1cc(C(F)(F)F)c(=O)[nH]n1)N1CCN(c2ncc(C(F)(F)F)cn2)CC1 (single isomer, unassigned) [Compound 18a, 6-(1-(3-oxo-3-(4-(5-(trifluoromethyl)pyrimidin-2-yl)piperazin-1-yl)propyl)pyrrolidin-2-yl)-4-(trifluoromethyl)pyridazin-3(2H)-one]
IC50 (Table 1): 10 to 100 nM

O=C(CN1CCC(c2cc(C(F)(F)F)c(=O)[nH]n2)CC1)N1CCN(c2ncc(C(F)(F)F)cn2)CC1 [Compound 62]
IC50 (Table 1A): 100 to 1000 nM

O=C(CN1CCCC1c1cc(C(F)(F)F)c(=O)[nH]n1)N1CCN(c2nc3cc(Cl)ccc3o2)CC1 (single isomer, unassigned) [Compound 99a]
IC50 (Table 1A): ≤ 10 nM

O=C(CN1CCCC1c1c[nH]c(=O)c(C(F)(F)F)c1)N1CCN(c2ncc(C(F)(F)F)cn2)CC1 (single isomer, unassigned) [Compound 60a, 5-(1-(2-oxo-2-(4-(5-(trifluoromethyl)pyrimidin-2-yl)piperazin-1-yl)ethyl)pyrrolidin-2-yl)-3-(trifluoromethyl)pyridin-2(1H)-one]
IC50 (Table 1A): 10 to 100 nM

O=C(CN1CCCC1c1cc(C(F)(F)F)c(=O)[nH]n1)N1CCN(c2nc3ccc(F)cn3n2)CC1 (single isomer, unassigned) [Compound 128a]
IC50 (Table 1A): ≤ 10 nM

O=C(CCN1CCCC(c2cc(C(F)(F)F)c(=O)[nH]n2)C1)N1CCN(c2ccc(Cl)cn2)CC1 (single isomer, unassigned) [Compound 15a]
IC50 (Table 1): 100 to 1000 nM

O=C(CN1CCN(c2ncc(C(F)(F)F)cn2)CC1)N1CCCC1c1cc(C(F)(F)F)c(=O)[nH]n1 (single isomer, unassigned) [Compound 32a]
IC50 (Table 1): 100 to 1000 nM

N#Cc1[nH]c(=O)c(C(F)(F)F)cc1C1CCCN1CC(=O)N1CCN(c2ncc(C(F)(F)F)cn2)CC1 (racemic) [Compound 115rac]
IC50 (Table 1A): > 10000 nM

O=C(CN1CCOCC1c1cc(C(F)(F)F)c(=O)[nH]n1)N1CCN(c2ncc(C(F)(F)F)cn2)CC1 (single isomer, unassigned) [Compound 88a]
IC50 (Table 1A): 100 to 1000 nM

Cn1c(N2CCN(C(=O)CN3CCCC3c3cc(C(F)(F)F)c(=O)[nH]n3)CC2)nc2ccc(F)cc21 (single isomer, unassigned) [Compound 119b]
IC50 (Table 1A): > 10000 nM

N#Cc1cc(C2CCCN2CC(=O)N2CCN(c3nc4cc(Cl)ccc4o3)CC2)n[nH]c1=O (single isomer, unassigned) [Compound 121b]
IC50 (Table 1A): 1000 to 10000 nM

O=C(CN1CCCC1c1cc(C(F)(F)F)c(=O)[nH]n1)N1CCN(c2ncc(Cl)cc2Cl)CC1 (single isomer, unassigned) [Compound 125b]
IC50 (Table 1A): 1000 to 10000 nM

Cc1[nH]c(=O)c(C(F)(F)F)cc1C1CCCN1CC(=O)N1CCN(c2ncc(C(F)(F)F)cn2)CC1 (single isomer, unassigned) [Compound 102a, 6-methyl-5-(1-(2-oxo-2-(4-(5-(trifluoromethyl)pyrimidin-2-yl)piperazin-1-yl)ethyl)pyrrolidin-2-yl)-3-(trifluoromethyl)pyridin-2(1H)-one]
IC50 (Table 1A): 100 to 1000 nM

O=C(CCN1CCCC(c2cc(C(F)(F)F)c(=O)[nH]n2)C1)N1CCN(c2ncc(C(F)(F)F)s2)CC1 (single isomer, unassigned) [Compound 27a]
IC50 (Table 1): 10 to 100 nM

N#Cc1cnc(N2CCN(C(=O)CN3CCCC3c3c[nH]c(=O)c(C(F)(F)F)c3)CC2)nc1 (single isomer, unassigned) [Compound 76a]
IC50 (Table 1A): 1000 to 10000 nM

N#Cc1cc(Cl)cnc1N1CCN(C(=O)CN2CCCC2c2cc(C(F)(F)F)c(=O)[nH]n2)CC1 (single isomer, unassigned) [Compound 144a]
IC50 (Table 1A): 10 to 100 nM

O=C(CN1CCCC1c1cc(Cl)c(=O)[nH]n1)N1CCN(c2ncc(C(F)(F)F)cn2)CC1 (racemic) [Compound 68rac, 4-chloro-6-(1-(2-oxo-2-(4-(5-(trifluoromethyl)pyrimidin-2-yl)piperazin-1-yl)ethyl)pyrrolidin-2-yl)pyridazin-3(2H)-one]
IC50 (Table 1A): 100 to 1000 nM

N#Cc1ccc2nc(N3CCN(C(=O)CN4CCCC4c4cc(C#N)c(=O)[nH]n4)CC3)oc2c1 (single isomer, unassigned) [Compound 145b]
IC50 (Table 1A): > 10000 nM

O=C(CCN1CCC(c2cc(C(F)(F)F)c(=O)[nH]n2)CC1)N1CCN(c2ncc(C(F)(F)F)cn2)CC1 [Compound 61]
IC50 (Table 1A): 100 to 1000 nM

CC1(C)CC(c2cc(C(F)(F)F)c(=O)[nH]n2)N(CC(=O)N2CCN(c3ncc(C(F)(F)F)cn3)CC2)C1 (single isomer, unassigned) [Compound 94b]
IC50 (Table 1A): 1000 to 10000 nM

CN(C(=O)CN1CCCC1c1cc(C(F)(F)F)c(=O)[nH]n1)C1CCN(c2ncc(C(F)(F)F)cn2)CC1 (single isomer, unassigned) [Compound 34b]
IC50 (Table 1A): 1000 to 10000 nM

O=C(CN1CCCC1c1cc(C(F)(F)F)c(=O)[nH]n1)C1CCN(c2ncc(C(F)(F)F)cn2)CC1 (single isomer, unassigned) [Compound 75a]
IC50 (Table 1A): 10 to 100 nM

O=C(CN1CCCC1c1cc(C(F)(F)F)c(=O)[nH]n1)N1CCN(c2ncc(C(F)(F)F)cn2)CC1 (single isomer, unassigned) [Compound 24b, 6-(1-(2-oxo-2-(4-(5-(trifluoromethyl)pyrimidin-2-yl)piperazin-1-yl)ethyl)pyrrolidin-2-yl)-4-(trifluoromethyl)pyridazin-3(2H)-one]
IC50 (Table 1): 10 to 100 nM

O=C(CN1CCCC1c1cc(C(F)(F)F)c(=O)[nH]n1)NC1CCN(c2ncc(C(F)(F)F)cn2)CC1 (single isomer, unassigned) [Compound 33b]
IC50 (Table 1A): 100 to 1000 nM

O=C(CN1Cc2ccccc2C1c1cc(C(F)(F)F)c(=O)[nH]n1)N1CCN(c2ncc(C(F)(F)F)cn2)CC1 (single isomer, unassigned) [Compound 104a, 6-(2-(2-oxo-2-(4-(5-(trifluoromethyl)pyrimidin-2-yl)piperazin-1-yl)ethyl)isoindolin-1-yl)-4-(trifluoromethyl)pyridazin-3(2H)-one]
IC50 (Table 1A): 100 to 1000 nM

COC1CC(c2cc(C(F)(F)F)c(=O)[nH]n2)N(CC(=O)N2CCN(c3ncc(C(F)(F)F)cn3)CC2)C1 (single isomer, unassigned) [Compound 138cis2, 6-(4-methoxy-1-(2-oxo-2-(4-(5-(trifluoromethyl)pyrimidin-2-yl)piperazin-1-yl)ethyl)pyrrolidin-2-yl)-4-(trifluoromethyl)pyridazin-3(2H)-one]
IC50 (Table 1A): 1000 to 10000 nM

O=C(CCN1CCC(c2n[nH]c(=O)c3ccccc23)CC1)N1CCN(c2ncc(C(F)(F)F)cn2)CC1 [Compound 49]
IC50 (Table 1A): 10 to 100 nM

Cc1[nH]c(=O)c(C(F)(F)F)cc1C1CCCN1CC(=O)N1CCN(c2ncc(C(F)(F)F)cn2)CC1 (single isomer, unassigned) [Compound 102b, 6-methyl-5-(1-(2-oxo-2-(4-(5-(trifluoromethyl)pyrimidin-2-yl)piperazin-1-yl)ethyl)pyrrolidin-2-yl)-3-(trifluoromethyl)pyridin-2(1H)-one]
IC50 (Table 1A): 1000 to 10000 nM

N#Cc1ccc2oc(N3CCN(C(=O)CN4CCCC4c4cc(C(F)(F)F)c(=O)[nH]n4)CC3)nc2c1 (single isomer, unassigned) [Compound 100a]
IC50 (Table 1A): 10 to 100 nM

CCc1cc(C2CCCN2CC(=O)N2CCN(c3ncc(C(F)(F)F)cn3)CC2)n[nH]c1=O (single isomer, unassigned) [Compound 40a]
IC50 (Table 1A): 10 to 100 nM

CC(C)(C)c1cnc(N2CCN(C(=O)CN3CCCC3c3cc(C(F)(F)F)c(=O)[nH]n3)CC2)nc1 (single isomer, unassigned) [Compound 82a]
IC50 (Table 1A): 10 to 100 nM
